{"source": "the supplement of paper PMC10307832", "assay_in_all_cases": "relative viability (nuclei count vs DMSO), 5 days (fraction); higher = more cells survive", "key": {"[1]": {"compound": "C[C@@]1(C(=O)Nc2ccc(F)nc2)CCCN1c1nc(Nc2cc(C3CC3)n[nH]2)c2cccn2n1 + C[C@]1(O)C[C@@H](c2nc(-c3ccc4ccc(-c5ccccc5)nc4c3)c3c(N)nccn32)C1 [Linsitinib] (partner 1 µM)", "how_it_was_run": "(§1)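 Dosing by pin tool came one day after lung cancer cell lines were seeded in 1536-well plates, using either one drug or a fixed anchor-drug dose plus five library-drug doses (not always all listed) in √10 steps. After 5 days, nuclei were counted on 4× images. Relative viability is treated-well nuclei count divided by vehicle-well nuclei count, and values are medians of duplicate plates.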"}, "[2]": {"compound": "CC1(C)CNc2cc(NC(=O)c3cccnc3NCc3ccncc3)ccc21 [Motesanib] + Cc1nc(NC(=O)N2CCC[C@H]2C(N)=O)sc1-c1ccnc(C(C)(C)C(F)(F)F)c1 [Alpelisib] (partner 2 µM)", "how_it_was_run": "as §1"}, "[3]": {"compound": "C[C@@]1(C(=O)Nc2ccc(F)nc2)CCCN1c1nc(Nc2cc(C3CC3)n[nH]2)c2cccn2n1 + CC1(C)CCC(c2ccc(Cl)cc2)=C(CN2CCN(c3ccc(C(=O)NS(=O)(=O)c4ccc(N[C@H](CCN5CCOCC5)CSc5ccccc5)c(S(=O)(=O)C(F)(F)F)c4)cc3)CC2)C1 [Navitoclax] (partner 0.5 µM)", "how_it_was_run": "as §1"}, "[4]": {"compound": "C[C@@]1(C(=O)Nc2ccc(F)nc2)CCCN1c1nc(Nc2cc(C3CC3)n[nH]2)c2cccn2n1 + CC(=O)c1c(C)c2cnc(Nc3ccc(N4CCNCC4)cn3)nc2n(C2CCCC2)c1=O [Palbociclib] (partner 0.5 µM)", "how_it_was_run": "as §1"}}}
{"cell line": "UMC-11", "values": [{"measurement": "relative viability", "setting": "[1]; first compound 0.04 µM", "value": 1.08}, {"measurement": "relative viability", "setting": "[1]; first compound 0.1265 µM", "value": 0.985}, {"measurement": "relative viability", "setting": "[1]; first compound 0.4 µM", "value": 0.957}, {"measurement": "relative viability", "setting": "[1]; first compound 1.265 µM", "value": 1.05}, {"measurement": "relative viability", "setting": "[2]; first compound 0.01 µM", "value": 0.923}, {"measurement": "relative viability", "setting": "[2]; first compound 0.03162 µM", "value": 0.973}, {"measurement": "relative viability", "setting": "[2]; first compound 0.1 µM", "value": 0.981}, {"measurement": "relative viability", "setting": "[2]; first compound 0.3162 µM", "value": 1.03}, {"measurement": "relative viability", "setting": "[2]; first compound 1 µM", "value": 1.03}, {"measurement": "relative viability", "setting": "[3]; first compound 0.04 µM", "value": 0.365}, {"measurement": "relative viability", "setting": "[3]; first compound 0.1265 µM", "value": 0.293}, {"measurement": "relative viability", "setting": "[3]; first compound 0.4 µM", "value": 0.249}, {"measurement": "relative viability", "setting": "[3]; first compound 1.265 µM", "value": 0.269}, {"measurement": "relative viability", "setting": "[4]; first compound 0.04 µM", "value": 0.31}, {"measurement": "relative viability", "setting": "[4]; first compound 0.1265 µM", "value": 0.312}, {"measurement": "relative viability", "setting": "[4]; first compound 0.4 µM", "value": 0.32}, {"measurement": "relative viability", "setting": "[4]; first compound 1.265 µM", "value": 0.273}]}
